Tested on: Klebsiella isolates
Test: Acoustic flow cytometry-assisted susceptibility test (FAST), MICFAST and S/NS, Klebsiella isolates
Format: cell-based, Klebsiella pneumoniae, Klebsiella oxytoca
Experimental: A 1 mL aliquot of bacterial suspension was centrifuged, washed and resuspended in 1 mL filtered Hank's Buffered Salt Solution (HBSS; comprising about 0.137 M NaCl, about 5.4 mM KCl, about 0.25 mM Na2HPO4, about 0.1 g Glucose, about 0.44 mM KH2PO4, 1.3 mM CaCl2), 1.0 mM MgSO4, about 1.3 mM CaCl2), 1.0 mM MgSO4, and about 4.2 mM NaHCO3) and diluted in series (e.g., in a 1:10 serial dilution) to a final 1:1000 dilution.
One μL (microliter) of SYTO 9 stain (e.g., ThermoFisher Scientific) working stock solution was added to the final dilution at a final concentration of 5 μM and incubated for 5 minutes before counting bacterial events by acoustic flow cytometer (AFC) (Attune, ThermoFisher, Eugene, Oreg., USA), which was used to prepare a standardised inoculum density for susceptibility testing.
An aliquot of bacterial suspension was added to 50 mL centrifuge tubes (Corning, N.Y.) containing 9 mL of pre-warmed (37° C.) filtered MHB to produce a final density of 5×10^5-1×10^6 bacteria per mL. This suspension was incubated at 37° C. with shaking at 100 RPM for 30 minutes to obtain an actively dividing culture. An aliquot of antibiotic working solution from the previously described dilution series (appropriate to the concentration tested) was then added to each tube before a further 30-minute incubation with shaking, during which time a microbroth dilution (MBD) plate was prepared for overnight incubation at 37° C. as previously described in Clinical and Laboratory Standards Institute (2015) Performance Standards for Antimicrobial Susceptibility Testing: Informational Supplement. CLSI document M100-S25. Clinical and Laboratory Standards Institute, 950, West Valley Road, Suite 2500, Wayne, Pa., 19087, USA.
One millilitre of bacterial suspension from each antibiotic concentration was harvested by centrifugation at 7800×g for 5 minutes, washed and diluted 1:10 in filtered HBSS in a light-impermeable microcentrifuge tube, then stained with SYTO 9 stain at a final concentration of 5 μM, and incubated for 5 min before AFC sampling. Hoechst 33342 dye (NucBlue, Thermo Fisher Scientific, Eugene, Oreg., USA) and a SYTO 9/propidium iodide (PI) combination (Thermo Fisher Scientific) were used in a series of replicate experiments.
The acoustic flow cytometer employed was Attune acoustic flow cytometer (Thermo Fisher Scientific), having installed therein a 488 nm blue laser with a 530/30 nm filter on the photomultiplier tube for measuring fluorescence of cells assayed. Alternatively, the Attune NxT acoustic flow cytometer (Thermo Fisher Scientific) can be employed. AFC was calibrated at the beginning of each acquisition session using fluorescently labelled size calibration beads, in accordance with the manufacturer's instructions (ThermoFisher Scientific). The AFC settings were as follows: Forward Scatter (FSC) voltage 3100, FSC threshold 4×1000 AND, blue laser 1 (BL1—530/30 nm) voltage 1900, BL1 threshold 1×1000 AND, high sensitivity, flow rate 25 μL/minute, and an acquisition volume of 125 μL. Acquisition was halted after either collection of 20,000 events across all gates, or after 3 minutes, with each sample acquired in technical triplicate.
Collected data was exported in the FCS 3.0 file format and analysed in Flow v10.0 (FlowJo LLC, Ashland, Oreg., USA) by a single user, blinded to the MIC results by BMD (MICBMD).
Subsequent to quantitative MICFAST determination, the acoustic flow cytometer data were re-analysed in silico to produce a limited sub-set for qualitative susceptibility determination. The six antibiotic dilutions (0 mg/L, 0.25 mg/L, 1 mg/L, 2 mg/L, 4 mg/L and 16 mg/L) most relevant to qualitative susceptibility assessment were used. In silico analysis was restricted to the first technical triplicate of each recorded sample. Gating strategies remained consistent, with the addition of a gate restricting analysis to only those events recorded in the first 60 seconds of acquisition.

[1] = isolate 3000770, England, NDM-1
[2] = isolate 3040820, England, pAmpC
[3] = isolate ATCC BAA 1705, USA, KPC
[4] = isolate K16, Australia, IMP - 4
[5] = isolate K23, Australia, IMP - 4
[6] = isolate KS1, Sri Lanka, OXA-181
[7] = isolate KS2, Sri Lanka, OXA-181
[8] = isolate KS17, Sri Lanka, OXA-181
[9] = isolate KS23, Sri Lanka, OXA-181

C[C@@H](O)[C@H]1C(=O)N2C(C(=O)O)=C(S[C@@H]3CN[C@H](C(=O)N(C)C)C3)[C@H](C)[C@H]12 [meropenem]
FAST S/NS (isolate 2440606, England): S (S = MIC ≤2 mg/L)
MICFAST (isolate 2440606, England): ≤0.25 mg/L
FAST S/NS (isolate 2880622, England): S (S = MIC ≤2 mg/L)
MICFAST (isolate 2880622, England): ≤0.25 mg/L
FAST S/NS (isolate 2880654, England, KPC): NS (NS = MIC >2 mg/L)
MICFAST (isolate 2880654, England, KPC): 32 mg/L
FAST S/NS (isolate 2890369, England): S (S = MIC ≤2 mg/L)
MICFAST (isolate 2890369, England): 0.5 mg/L
FAST S/NS (isolate 2980639, England): S (S = MIC ≤2 mg/L)
MICFAST (isolate 2980639, England): 0.5 mg/L
FAST S/NS [1]: NS (NS = MIC >2 mg/L)
MICFAST [1]: 8 mg/L
FAST S/NS [2]: S (S = MIC ≤2 mg/L)
MICFAST [2]: ≤0.25 mg/L
FAST S/NS (isolate 3080800, England, KPC): NS (NS = MIC >2 mg/L)
MICFAST (isolate 3080800, England, KPC): 32 mg/L
FAST S/NS (isolate A1, Norway): S (S = MIC ≤2 mg/L)
MICFAST (isolate A1, Norway): ≤0.25 mg/L
FAST S/NS (isolate A2, Norway): S (S = MIC ≤2 mg/L)
MICFAST (isolate A2, Norway): ≤0.25 mg/L
FAST S/NS (isolate A3, Norway): S (S = MIC ≤2 mg/L)
MICFAST (isolate A3, Norway): ≤0.25 mg/L
FAST S/NS (isolate A4, Norway): S (S = MIC ≤2 mg/L)
MICFAST (isolate A4, Norway): ≤0.25 mg/L
FAST S/NS (isolate A7, Norway): S (S = MIC ≤2 mg/L)
MICFAST (isolate A7, Norway): ≤0.25 mg/L
FAST S/NS (isolate A13, Norway): S (S = MIC ≤2 mg/L)
MICFAST (isolate A13, Norway): ≤0.25 mg/L
FAST S/NS (isolate A15, Norway): S (S = MIC ≤2 mg/L)
MICFAST (isolate A15, Norway): ≤0.25 mg/L
FAST S/NS (isolate A16, Norway): S (S = MIC ≤2 mg/L)
MICFAST (isolate A16, Norway): ≤0.25 mg/L
FAST S/NS (isolate A20, Norway, NDM-1): NS (NS = MIC >2 mg/L)
MICFAST (isolate A20, Norway, NDM-1): 16 mg/L
FAST S/NS (isolate ATCC 700603, USA): S (S = MIC ≤2 mg/L)
MICFAST (isolate ATCC 700603, USA): ≤0.25 mg/L
FAST S/NS [3]: NS (NS = MIC >2 mg/L)
MICFAST [3]: 8 mg/L
FAST S/NS (isolate ATCC BAA 1706, USA): S (S = MIC ≤2 mg/L)
MICFAST (isolate ATCC BAA 1706, USA): ≤0.25 mg/L
FAST S/NS (isolate K1, Australia, OXA-181): NS (NS = MIC >2 mg/L)
MICFAST (isolate K1, Australia, OXA-181): 32 mg/L
FAST S/NS (isolate K2, Australia, OXA-181): NS (NS = MIC >2 mg/L)
MICFAST (isolate K2, Australia, OXA-181): 32 mg/L
FAST S/NS (isolate K8, Australia, NDM-1): NS (NS = MIC >2 mg/L)
MICFAST (isolate K8, Australia, NDM-1): >256 mg/L
FAST S/NS (isolate K14, Australia, KPC): NS (NS = MIC >2 mg/L)
FAST S/NS [4]: S (S = MIC ≤2 mg/L)
MICFAST [4]: 2 mg/L
FAST S/NS [5]: S (S = MIC ≤2 mg/L)
MICFAST [5]: 0.5 mg/L
FAST S/NS [6]: S (S = MIC ≤2 mg/L)
MICFAST [6]: 2 mg/L
FAST S/NS [7]: NS (NS = MIC >2 mg/L)
MICFAST [7]: 16 mg/L
FAST S/NS [8]: NS (NS = MIC >2 mg/L)
MICFAST [8]: 64 mg/L
FAST S/NS [9]: NS (NS = MIC >2 mg/L)
MICFAST [9]: 64 mg/L
FAST S/NS (isolate N17, Sweden, NDM-1): NS (NS = MIC >2 mg/L)
MICFAST (isolate N17, Sweden, NDM-1): 32 mg/L

— patent US20210292807A1, “METHOD FOR TESTING ANTIMICROBIAL SUSCEPTIBILITY” (priority 2017, published 2021)
